Reference: ChEMBL document CHEMBL3045792, “Synthesis, antimicrobial activity, and molecular modeling of novel 4-(3-(4-benzylpiperazin-1-yl)propoxy)-7-methoxy-3-substituted phenyl-2H-chromen-2-one” (2013)
Active and inactive are the calls of the source. No cut-off for these calls is given here.

Columns and labels:
Assay type in all cases: functional
Bacillus pumilus [1] = test: Antibacterial activity against Bacillus pumilus assessed as growth inhibition at 600 ug/ml by NCCLS […] method; details: for zone of inhibition at 600 µg/mL: read-out: IZ
Colletotrichum falcatum [2] = test: Antifungal activity against Glomerella tucumanensis assessed as growth inhibition at 900 ug/ml; details: for zone of inhibition at 900 µg/mL: read-out: IZ
Bacillus subtilis [3] = test: Antibacterial activity against Bacillus subtilis assessed as growth inhibition at 600 ug/ml by NCCLS […] method; details: read-out: IZ
Klebsiella pneumoniae [4] = test: Antibacterial activity against Klebsiella pneumoniae assessed as growth inhibition at 900 ug/ml by NCCLS […] method; details: read-out: IZ
Bacillus subtilis [5] = test: Antibacterial activity against Bacillus subtilis assessed as growth inhibition at 900 ug/ml by NCCLS […] method; details: read-out: IZ
Bacillus pumilus [6] = test: Antibacterial activity against Bacillus pumilus assessed as growth inhibition at 900 ug/ml by NCCLS […] method; details: for zone of inhibition at 900 µg/mL: read-out: IZ
Proteus mirabilis [7] = test: Antibacterial activity against Proteus mirabilis assessed as growth inhibition at 900 ug/ml by NCCLS […] method; details: read-out: IZ
Proteus vulgaris [8] = test: Antibacterial activity against Proteus vulgaris assessed as growth inhibition at 600 ug/ml by NCCLS […] method; details: read-out: IZ
Colletotrichum falcatum [9] = test: Antifungal activity against Glomerella tucumanensis assessed as growth inhibition at 1200 ug/ml; details: for zone of inhibition at 1200 µg/mL: read-out: IZ
Proteus mirabilis [10] = test: Antibacterial activity against Proteus mirabilis assessed as growth inhibition at 600 ug/ml by NCCLS […] method; details: read-out: IZ
Exserohilum rostratum [11] = test: Antifungal activity against Setosphaeria rostrata assessed as growth inhibition at 1200 ug/ml; details: read-out: IZ
Fusarium oxysporum [12] = test: Antifungal activity against Fusarium oxysporum assessed as growth inhibition at 900 ug/ml; details: for zone of inhibition at 900 µg/mL: read-out: IZ
Exserohilum rostratum [13] = test: Antifungal activity against Setosphaeria rostrata assessed as growth inhibition at 300 ug/ml; details: read-out: IZ
Streptococcus pyogenes [14] = test: Antibacterial activity against Streptococcus pyogenes assessed as growth inhibition at 900 ug/ml by NCCLS […] method; details: read-out: IZ
Escherichia coli [15] = test: Antibacterial activity against Escherichia coli assessed as growth inhibition at 600 ug/ml by NCCLS […] method; details: read-out: IZ
Proteus vulgaris [16] = test: Antibacterial activity against Proteus vulgaris assessed as growth inhibition at 900 ug/ml by NCCLS […] method; details: read-out: IZ
Priestia megaterium [17] = test: Antibacterial activity against Bacillus megaterium assessed as growth inhibition at 900 ug/ml by NCCLS […] method; details: for zone of inhibition at 900 µg/mL: read-out: IZ
Fusarium oxysporum [18] = test: Antifungal activity against Fusarium oxysporum assessed as growth inhibition at 300 ug/ml; details: for zone of inhibition at 300 µg/mL: read-out: IZ
Fusarium oxysporum [19] = test: Antifungal activity against Fusarium oxysporum assessed as growth inhibition at 1200 ug/ml; details: for zone of inhibition at 1200 µg/mL: read-out: IZ
Klebsiella aerogenes [20] = test: Antibacterial activity against Enterobacter aerogenes assessed as growth inhibition at 900 ug/ml by NCCLS […] method; details: read-out: IZ
Exserohilum rostratum [21] = test: Antifungal activity against Setosphaeria rostrata assessed as growth inhibition at 600 ug/ml; details: read-out: IZ
Candida albicans [22] = test: Antifungal activity against Candida albicans assessed as growth inhibition at 300 ug/ml; details: read-out: IZ
Staphylococcus aureus [23] = test: Antibacterial activity against Staphylococcus aureus assessed as growth inhibition at 900 ug/ml by NCCLS […] method; details: read-out: IZ
Candida albicans [24] = test: Antifungal activity against Candida albicans assessed as growth inhibition at 1200 ug/ml; details: read-out: IZ
Klebsiella pneumoniae [25] = test: Antibacterial activity against Klebsiella pneumoniae assessed as growth inhibition at 600 ug/ml by NCCLS […] method; details: read-out: IZ
Escherichia coli [26] = test: Antibacterial activity against Escherichia coli assessed as growth inhibition at 900 ug/ml by NCCLS […] method; details: read-out: IZ
Staphylococcus aureus [27] = test: Antibacterial activity against Staphylococcus aureus assessed as growth inhibition at 600 ug/ml by NCCLS […] method; details: read-out: IZ
Priestia megaterium [28] = test: Antibacterial activity against Bacillus megaterium assessed as growth inhibition at 600 ug/ml by NCCLS […] method; details: for zone of inhibition at 600 µg/mL: read-out: IZ
Streptococcus pyogenes [29] = test: Antibacterial activity against Streptococcus pyogenes assessed as growth inhibition at 600 ug/ml by NCCLS […] method; details: read-out: IZ
Colletotrichum falcatum [30] = test: Antifungal activity against Glomerella tucumanensis assessed as growth inhibition at 300 ug/ml; details: for zone of inhibition at 300 µg/mL: read-out: IZ
Colletotrichum falcatum [31] = test: Antifungal activity against Glomerella tucumanensis assessed as growth inhibition at 600 ug/ml; details: for zone of inhibition at 600 µg/mL: read-out: IZ
Candida albicans [32] = test: Antifungal activity against Candida albicans assessed as growth inhibition at 900 ug/ml; details: read-out: IZ
Candida albicans [33] = test: Antifungal activity against Candida albicans assessed as growth inhibition at 600 ug/ml; details: read-out: IZ
Fusarium oxysporum [34] = test: Antifungal activity against Fusarium oxysporum assessed as growth inhibition at 600 ug/ml; details: for zone of inhibition at 600 µg/mL: read-out: IZ
Klebsiella aerogenes [35] = test: Antibacterial activity against Enterobacter aerogenes assessed as growth inhibition at 600 ug/ml by NCCLS […] method; details: read-out: IZ
Exserohilum rostratum [36] = test: Antifungal activity against Setosphaeria rostrata assessed as growth inhibition at 900 ug/ml; details: read-out: IZ

Compound	zone of inhibition at 600 µg/mL (Bacillus subtilis [3])	zone of inhibition at 900 µg/mL (Klebsiella pneumoniae [4])	zone of inhibition at 900 µg/mL (Bacillus subtilis [5])	zone of inhibition at 900 µg/mL (Proteus mirabilis [7])	zone of inhibition at 600 µg/mL (Proteus vulgaris [8])	zone of inhibition at 600 µg/mL (Proteus mirabilis [10])	zone of inhibition at 1200 µg/mL (Exserohilum rostratum [11])	zone of inhibition at 300 µg/mL (Exserohilum rostratum [13])	zone of inhibition at 900 µg/mL (Streptococcus pyogenes [14])	zone of inhibition at 600 µg/mL (Escherichia coli [15])	zone of inhibition at 900 µg/mL (Proteus vulgaris [16])	zone of inhibition at 900 µg/mL (Klebsiella aerogenes [20])	zone of inhibition at 600 µg/mL (Exserohilum rostratum [21])	zone of inhibition at 300 µg/mL (Candida albicans [22])	zone of inhibition at 900 µg/mL (Staphylococcus aureus [23])	zone of inhibition at 1200 µg/mL (Candida albicans [24])	zone of inhibition at 600 µg/mL (Klebsiella pneumoniae [25])	zone of inhibition at 900 µg/mL (Escherichia coli [26])	zone of inhibition at 600 µg/mL (Staphylococcus aureus [27])	zone of inhibition at 600 µg/mL (Streptococcus pyogenes [29])	other results
COc1ccc2c(OCCCN3CCN(Cc4ccc(Cl)cc4Cl)CC3)c(-c3ccccc3)c(=O)oc2c1	9.02 mm	14 mm	12.1 mm	9.01 mm	4.02 mm	4.91 mm	23.2 mm	2.89 mm	6.25 mm	7.02 mm	8.04 mm	8.08 mm	5.76 mm	2.01 mm	12 mm	17.2 mm	8.82 mm	14.1 mm	6.5 mm	3.27 mm	zone of inhibition at 600 µg/mL (Bacillus pumilus [1]): 2.01 mm; zone of inhibition at 900 µg/mL (Colletotrichum falcatum [2]): 13.8 mm; zone of inhibition at 900 µg/mL (Bacillus pumilus [6]): 4.28 mm; zone of inhibition at 1200 µg/mL (Colletotrichum falcatum [9]): 26.4 mm; zone of inhibition at 900 µg/mL (Fusarium oxysporum [12]): 13.6 mm; zone of inhibition at 900 µg/mL (Priestia megaterium [17]): 12 mm; zone of inhibition at 300 µg/mL (Fusarium oxysporum [18]): 3.08 mm; zone of inhibition at 1200 µg/mL (Fusarium oxysporum [19]): 25.8 mm; zone of inhibition at 600 µg/mL (Priestia megaterium [28]): 6.3 mm; zone of inhibition at 300 µg/mL (Colletotrichum falcatum [30]): 3.25 mm; zone of inhibition at 600 µg/mL (Colletotrichum falcatum [31]): 6.5 mm; zone of inhibition at 900 µg/mL (Candida albicans [32]): 9.56 mm; zone of inhibition at 600 µg/mL (Candida albicans [33]): 4.89 mm; zone of inhibition at 600 µg/mL (Fusarium oxysporum [34]): 6.25 mm; zone of inhibition at 600 µg/mL (Klebsiella aerogenes [35]): 4.25 mm; zone of inhibition at 900 µg/mL (Exserohilum rostratum [36]): 11.6 mm
COc1ccc2c(OCCCN3CCN(Cc4ccc(Br)cc4)CC3)c(-c3ccccc3)c(=O)oc2c1	2.08 mm	6.24 mm	4.16 mm	5.02 mm	5.02 mm	4.28 mm	31.3 mm	4.56 mm	13.1 mm	2 mm	10.2 mm	6.8 mm	8.12 mm	3.02 mm	8 mm	19.6 mm	2.89 mm	4.01 mm	4.25 mm	6.25 mm	growth inhibition (GI) (Bacillus pumilus [1]): inactive; zone of inhibition at 900 µg/mL (Colletotrichum falcatum [2]): 19.4 mm; growth inhibition (GI) (Bacillus pumilus [6]): inactive; zone of inhibition at 1200 µg/mL (Colletotrichum falcatum [9]): 33.8 mm; zone of inhibition at 900 µg/mL (Fusarium oxysporum [12]): 14.2 mm; zone of inhibition at 900 µg/mL (Priestia megaterium [17]): 12.1 mm; zone of inhibition at 300 µg/mL (Fusarium oxysporum [18]): 3.56 mm; zone of inhibition at 1200 µg/mL (Fusarium oxysporum [19]): 29.4 mm; zone of inhibition at 600 µg/mL (Priestia megaterium [28]): 6.25 mm; zone of inhibition at 300 µg/mL (Colletotrichum falcatum [30]): 5.62 mm; zone of inhibition at 600 µg/mL (Colletotrichum falcatum [31]): 9.76 mm; zone of inhibition at 900 µg/mL (Candida albicans [32]): 10.1 mm; zone of inhibition at 600 µg/mL (Candida albicans [33]): 5.84 mm; zone of inhibition at 600 µg/mL (Fusarium oxysporum [34]): 6.15 mm; zone of inhibition at 600 µg/mL (Klebsiella aerogenes [35]): 3.25 mm; zone of inhibition at 900 µg/mL (Exserohilum rostratum [36]): 15.6 mm
COc1ccc2c(OCCCN3CCN(Cc4cccnc4)CC3)c(-c3ccccc3)c(=O)oc2c1	8.76 mm	7.93 mm	15.1 mm	21.6 mm	8.76 mm	11.3 mm	23.4 mm	2.9 mm	16.8 mm	3.87 mm	17.1 mm	8.56 mm	6.76 mm	3.21 mm	21.4 mm	24.6 mm	3.78 mm	6.21 mm	11.6 mm	9.12 mm	growth inhibition (GI) (Bacillus pumilus [1]): inactive; zone of inhibition at 900 µg/mL (Colletotrichum falcatum [2]): 13.2 mm; growth inhibition (GI) (Bacillus pumilus [6]): inactive; zone of inhibition at 1200 µg/mL (Colletotrichum falcatum [9]): 27 mm; zone of inhibition at 900 µg/mL (Fusarium oxysporum [12]): 18.8 mm; zone of inhibition at 900 µg/mL (Priestia megaterium [17]): 13.4 mm; zone of inhibition at 300 µg/mL (Fusarium oxysporum [18]): 3.47 mm; zone of inhibition at 1200 µg/mL (Fusarium oxysporum [19]): 27.9 mm; zone of inhibition at 600 µg/mL (Priestia megaterium [28]): 7.65 mm; zone of inhibition at 300 µg/mL (Colletotrichum falcatum [30]): 4.45 mm; zone of inhibition at 600 µg/mL (Colletotrichum falcatum [31]): 7.76 mm; zone of inhibition at 900 µg/mL (Candida albicans [32]): 13.7 mm; zone of inhibition at 600 µg/mL (Candida albicans [33]): 6.14 mm; zone of inhibition at 600 µg/mL (Fusarium oxysporum [34]): 8.78 mm; zone of inhibition at 600 µg/mL (Klebsiella aerogenes [35]): 4.22 mm; zone of inhibition at 900 µg/mL (Exserohilum rostratum [36]): 11.9 mm
COc1ccc2c(OCCCN3CCN(Cc4ccccc4)CC3)c(-c3ccccc3)c(=O)oc2c1	6.56 mm	4.98 mm	12 mm	11.3 mm	6.54 mm	5.55 mm	24.6 mm	4.25 mm	11.9 mm	2.98 mm	12.8 mm	7.53 mm	8.56 mm	2.87 mm	11.2 mm	22.3 mm	2.56 mm	5.76 mm	7.89 mm	6.54 mm	zone of inhibition at 600 µg/mL (Bacillus pumilus [1]): 2.27 mm; growth inhibition (GI) (Colletotrichum falcatum [2]): inactive; zone of inhibition at 900 µg/mL (Bacillus pumilus [6]): 4.21 mm; growth inhibition (GI) (Colletotrichum falcatum [9]): inactive; growth inhibition (GI) (Fusarium oxysporum [12]): inactive; growth inhibition (GI) (Priestia megaterium [17]): inactive; growth inhibition (GI) (Fusarium oxysporum [18]): inactive; growth inhibition (GI) (Fusarium oxysporum [19]): inactive; growth inhibition (GI) (Priestia megaterium [28]): inactive; growth inhibition (GI) (Colletotrichum falcatum [30]): inactive; growth inhibition (GI) (Colletotrichum falcatum [31]): inactive; zone of inhibition at 900 µg/mL (Candida albicans [32]): 12 mm; zone of inhibition at 600 µg/mL (Candida albicans [33]): 5.43 mm; growth inhibition (GI) (Fusarium oxysporum [34]): inactive; zone of inhibition at 600 µg/mL (Klebsiella aerogenes [35]): 3.8 mm; zone of inhibition at 900 µg/mL (Exserohilum rostratum [36]): 15.8 mm
